Source: ChEMBL document CHEMBL6087420, “Synthesis and pharmacodynamic evaluation of 2-aminoindole derivatives against influenza A virus in vitro/vivo” (Eur J Med Chem, 2025)
Activity calls are given as the source filed them. The rule behind the calls is not given here.

Experiments:
Influenza A virus [1] = assay: Anti-influenza activity against influenza A virus H1NI (A/Weiss/43) infected in dog MDCK cells assessed as virus inhibition rate incubated for 72 hrs by MTT assay; format: functional, organism-based
Influenza A virus [2] = assay: Antiviral activity against influenza A virus H1NI (A/Weiss/43) infected in human A549 cells assessed as reduction in IAV-NP mRNA by qRT-PCR assay; format: functional, organism-based
Influenza A virus [3] = assay: Inhibition of influenza A virus infection induced apoptosis in MDCK cells infected with influenza virus assessed as necrotic cells at 25 uM incubated for 36 hrs by AnnexinV-FITC/PI staining based flow cytometry (reference value: 1.79%); format: functional; parameters: scale not given: the % may be the effect or the level left
Influenza A virus [4] = assay: Inhibition of influenza A virus infection induced apoptosis in MDCK cells assessed as viable cells at 100 uM incubated for 36 hrs by AnnexinV-FITC/PI staining based flow cytometry (reference value: 97.6%); format: functional
Influenza A virus [5] = assay: Antiviral activity against influenza A virus infected in A549 cells assessed as decrease in IAV-NP expression at 25 to 100 uM cells pretreated for 48 hrs followed by infected with virus by green fluorescent labelling based confocal microscopy; format: functional, organism-based; details: dose 25-100 µM
Influenza A virus [6] = assay: Antiviral activity against influenza A virus infected in human A549 cells assessed as inhibition of IFN-gamma expression by qRT-PCR analysis; format: functional, organism-based
Influenza A virus [7] = assay: Antiviral activity against influenza A virus H1NI (A/Weiss/43) infected in compound pretreated MDCK cells assessed as reduction in viral absorption; format: functional, organism-based
Influenza A virus [8] = assay: Inhibition of neuraminidase in Influenza A virus
Influenza A virus [9] = assay: In vivo antiviral activity against influenza A virus infected in BALB/c mouse assessed as reduction in IAV-M2 mRNA level in lung at 25 to 100 mg/kg measured after 6 dpi; format: functional, organism-based; details: dose 25-100 mg/kg
Influenza A virus [10] = assay: In vivo antiviral activity against influenza A virus infected in BALB/c mouse assessed as reduction in NLRP-3 mRNA level in lung at 25 to 100 mg/kg measured after 6 dpi; format: functional, organism-based; details: dose 25-100 mg/kg
Influenza A virus [11] = assay: In vivo antiviral activity against influenza A virus infected in BALB/c mouse assessed as reduction in iNOS mRNA level in lung at 25 to 100 mg/kg measured after 6 dpi; format: functional, organism-based; details: dose 25-100 mg/kg
Influenza A virus [12] = assay: In vivo antiviral activity against influenza A virus infected in BALB/c mouse assessed as reduction in Caspase-1 mRNA level in lung at 25 to 100 mg/kg measured after 6 dpi; format: functional, organism-based; details: dose 25-100 mg/kg

COc1ccc2c(c1)c(-c1ccccc1)c(NS(C)(=O)=O)n2S(=O)(=O)c1ccc(C)cc1
EC50 (Influenza A virus [1]): 8.37 µM
Activity (Influenza A virus [2]): Active
Activity (Influenza A virus [3]): 1.23%
Activity (Influenza A virus [4]): 96.7%
Activity (Influenza A virus [5]): Active
Activity (Influenza A virus [6]): Active
Activity (Influenza A virus [7]): inactive
inhibition (Influenza A virus [8]): inactive
Activity (Influenza A virus [9]): Active
Activity (Influenza A virus [10]): Active
Activity (Influenza A virus [11]): Active
Activity (Influenza A virus [12]): Active
